According to PMC7938888, “Antidepressant drugs act by directly binding to TRKB neurotrophin receptors” (Cell, 2021):

How the values were obtained:
TRKB [1] = target: T1, TRKB (Mus musculus, UniProt P15209); experiment: Cell-free ligand binding assay on immobilised TRKB from HEK293T lysates; parameters: wild-type GFP-tagged full length TRKB or the GFP-tagged Y433F TRKB mutant; host or cells: HEK293T; conditions: read-out: Kd of biotinylated FLX binding to immunoprecipitated TRKB; biotinylated ligand 0-100 μM
Experimental: The cell-free assays (binding assays) were performed in white 96-well plates, based on the protocol used for western-blotting or ELISA ([Baeza-Raja et al., 2016]; [Das et al., 2015]). The plates were precoated with anti-GFP, anti-FLAG, anti-TRK or anti-TRKB antibody (1:1000) in carbonate buffer (pH 9.8), ON at 4°C. Following blocking with 3% BSA in PBS buffer (2 h at RT), 120 ug of total protein from each sample (of lysates from HEK293T cells transfected to overexpress GFP-TRKB.wt or GFP-TRKB.Y433F) were added and incubated overnight at 4°C under agitation. […] The luminescence was determined via HRP-conjugated streptavidin (1:10000, 1h, RT) activity reaction with ECL by a plate reader. The luminescence signal from blank wells (containing all the reagents but the sample lystates, substituted by the blocking buffer) was used as background. The specific signal was then calculated by subtracting the values of blank wells from the values of the samples with matched concentration of the biotinylated ligand. For Figure 2E, the precipitated TRKB.wt or Y433F was incubated with tritiated imipramine (0-30μM) and the radioactive emission of the ligand was determined by scintillation (OptiPhase Supermix cocktail: #1200-439; MicroBeta2, Perkin-Elmer). The scintillation signal from blank wells was used as background, and the specific signal was then calculated by subtracting the values of blank wells from the values of the samples with matched concentration of the radioactive ligand.

TRKB [2] = target: T1, TRKB; experiment: In situ proximity ligation assay (PLA) in TRKB-expressing N2A cells; assay type: cell-based; parameters: expressed in transfected cells; host or cells: N2A; conditions: biotinylated fluoxetine 10 μM/15 min
Experimental: Proximity ligation assay was done with Duolink In Situ Red Starter Kit Mouse/Goat (#DUO92103, Sigma-Aldrich), following manufacturer’s instructions. […] Cells were fixed with PFA 4% for 15 min, washed, and incubated in Duolink blocking buffer for 1h at 37°C. Then, the coverslips were incubated with streptavidin-conjugated HRP (1:5000 in Duolink antibody diluent) for 45 min at room temperature. After washing twice in Duolink washing buffer A, samples were incubated overnight at 4°C with a mix of goat anti-TRKB (1:1000, #AF1494, R&D System) and mouse anti-HRP (1:1000, #200-3138-0100, Rockland Immunochemicals) diluted in Duolink antibody diluent. After washing in Duolink washing buffer A, samples were incubated for 1h at 37°C with a mix of minus and plus probes diluted 1:5 in Duolink antibody diluent. Then, ligation of probes with connector oligo was done by washing the samples in washing buffer A, and incubating for 30min at 37°C with ligase (25 U/ml) diluted in the Duolink ligation buffer. Amplification was done by washing the samples in the washing buffer A, and incubating for 100min at 37°C with polymerase (125 U/ml) diluted in the amplification buffer. Coverslips were washed in buffer B, then in buffer B diluted 1:100 in milliQ water, and mounted in Duolink in situ mounting medium with DAPI. All incubation steps were done in a humidified chamber. […]

TRKA = target: T2, TRKA (Homo sapiens, UniProt P04629); experiment: Cell-free ligand binding assay, TRKA from MG87 cells; conditions: compared to TRKB
T2 construct: expressed in transfected cells; host or cells: MG87.TRKA (NIH 3T3 mouse fibroblasts stably expressing TRKA)

hippocampal cells = experiment: BDNF-induced neurite branching in hippocampal cells (Sholl analysis); assay type: cell-based, rat; conditions: pravastatin 1 μM/3 days, BDNF 10 ng/ml/3 days
Experimental: MG87.TRKB or primary cultured cortical cells were fixed with 4% paraformaldehyde in PBS, and unspecific binding sites were blocked with a blocking buffer (5% normal donkey serum, 1% Bovine serum albumin, 0.1% gelatin, 0.1% Triton X-100, 0.05% Tween-20 in PBS). The MG87.TRKB cells were stained with anti-GFP, while primary cultures were incubated with anti-actin. The fluorescence was obtained following incubation with secondary antibodies. The coverslips were mounted with Dako Fluorescence Mounting Medium (#S3023). Images were acquired with Zeiss LSM710 confocal microscope (63x oil objective).
For Sholl analysis of cultured hippocampal cells, confocal images were processed using FIJI ImageJ (NIH software), and the number of branches in the 80-μm range from the cell soma were counted using FIJI plugin.

TRKB:PLC-γ1 interaction = TRKB:PLC-γ1 interaction ELISA in cortical cells; assay type: cell-based, rat; conditions: pravastatin 1 μM/3 days
Experimental: The TRKB:pY (phosphorylated TRKB), TRKB:PLC-γ1, PLC-γ1:pTRKB.Y816 interactions and were determined by ELISA, based on the general method described in literature ([Antila et al., 2014]; [Fred et al., 2019]), with minor adjustments. Briefly, white 96-well plates (OptiPlate 96F-HB, Perkin Elmer) were coated with capturing anti-TRKB or PLC-γ1 antibody (1:1000) in carbonate buffer (pH = 9.8) overnight (ON) at 4°C. Following a blocking step with 2%BSA in TBS-T (2 h, RT), samples were incubated ON at 4°C. The incubation with antibody against pTRKB.Y816, PLC-γ1 or pY (1:2000, ON, 4°C) was followed by HRP-conjugated anti-Rb IgG (1:5000, 2h, RT) or HRP-conjugated streptavidin (1:10000, 2h, RT). Finally, the chemiluminescent signal generated by the reaction with ECL was analyzed in a plate reader (Varioskan Flash, Thermo Scientific).

E18 cortical cells = experiment: Cell viability (CellTiterGlo) of cortical cells; assay type: cell-based, rat; conditions: pravastatin 2 μM for 5 days
Experimental: The cell viability assay was performed using CellTiterGlo (#G7571; Promega) according to manufacturer’s instructions. Briefly, equal amounts of medium and the mixture of regents A and B were added to the E18 cortical cells (DIV8) cultivated in clear bottom 96-well plates and incubated for 40min. The luminescence was analyzed in a plate reader.

Sprague-Dawley rats = experiment: BDNF-induced LTP in dentate gyrus of anesthetized rats; assay type: in vivo, rat; conditions: pravastatin 10 mg/kg/day/ in drinking water
Experimental: In vivo electrophysiology. Intrahippocampal BDNF infusion was performed as described previously ([Messaoudi et al., 1998]). The experiments were carried out on 20 adult male Sprague-Dawley rats (15 weeks old, Janvier, France). Rats were housed in the animal facility for 1-week prior to the start of drug administration. […]
For electrophysiological experiments, rats were anesthetized with an intraperitoneal injection of urethane (U2500, Sigma-Aldrich) 1.5 g/kg body weight, positioned in a stereotaxic frame. The body temperature was constantly monitored and maintained at 37°C with an electric heating pad. Holes were drilled in the skull and a concentric bipolar stimulating electrode (Tip separation 500micrometers; SNEX 100; Rhodes Medical Instruments, Woodland Hills, CA) was positioned in the angular bundle for stimulation of the medial perforant path (7.9 mm posterior to bregma, 4.2 mm lateral to the midline, and 2.5 mm below the dura. […]
Responses were allowed to stabilize for 1 hour at a stimulation intensity that produced a population spike 30% of maximum. […] Evoked responses were recorded for 120 min post infusion. Recorded field potentials were amplified, filtered (0.1 Hz to 10 kHz), and digitized (25 kHz). Electrophysiological data was analyzed using Datawave Technologies Software company. […]

mice = experiment: Object location memory (OLM) test; assay type: in vivo, mouse; conditions: wild-type mice, pravastatin co-treatment
Experimental: Object-location memory (OLM): this test was performed in a square arena (28cm side) with opaque walls containing cues (black stripes or spots). The adult male and female mice (18-22 weeks old) were placed for 3 consecutive days (15min per session) in the arena with two identical objects (table tennis balls glued to caps of 50ml Falcon tubes) in the same position throughout the sessions (pretest).

T1 sequence (P15209 32-821): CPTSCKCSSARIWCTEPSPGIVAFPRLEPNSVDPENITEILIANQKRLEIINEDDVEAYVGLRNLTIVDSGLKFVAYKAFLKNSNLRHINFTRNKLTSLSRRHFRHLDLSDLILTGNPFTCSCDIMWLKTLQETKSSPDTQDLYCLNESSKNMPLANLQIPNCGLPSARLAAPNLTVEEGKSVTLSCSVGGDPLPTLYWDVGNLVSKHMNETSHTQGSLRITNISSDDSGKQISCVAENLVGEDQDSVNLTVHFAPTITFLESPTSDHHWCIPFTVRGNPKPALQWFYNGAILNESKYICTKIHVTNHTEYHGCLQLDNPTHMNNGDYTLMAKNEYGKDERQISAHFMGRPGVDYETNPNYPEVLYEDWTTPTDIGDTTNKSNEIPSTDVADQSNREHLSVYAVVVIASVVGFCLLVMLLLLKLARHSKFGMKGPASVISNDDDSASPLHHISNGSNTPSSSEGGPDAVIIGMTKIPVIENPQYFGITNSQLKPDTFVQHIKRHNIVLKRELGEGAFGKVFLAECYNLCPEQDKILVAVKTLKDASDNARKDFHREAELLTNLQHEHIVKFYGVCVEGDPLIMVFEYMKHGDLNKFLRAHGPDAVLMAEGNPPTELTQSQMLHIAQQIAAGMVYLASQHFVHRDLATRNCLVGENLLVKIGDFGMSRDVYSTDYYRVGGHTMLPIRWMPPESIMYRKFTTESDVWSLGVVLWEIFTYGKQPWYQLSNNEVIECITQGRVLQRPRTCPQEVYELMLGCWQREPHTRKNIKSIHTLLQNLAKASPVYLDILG
T2 sequence (P04629 33-796): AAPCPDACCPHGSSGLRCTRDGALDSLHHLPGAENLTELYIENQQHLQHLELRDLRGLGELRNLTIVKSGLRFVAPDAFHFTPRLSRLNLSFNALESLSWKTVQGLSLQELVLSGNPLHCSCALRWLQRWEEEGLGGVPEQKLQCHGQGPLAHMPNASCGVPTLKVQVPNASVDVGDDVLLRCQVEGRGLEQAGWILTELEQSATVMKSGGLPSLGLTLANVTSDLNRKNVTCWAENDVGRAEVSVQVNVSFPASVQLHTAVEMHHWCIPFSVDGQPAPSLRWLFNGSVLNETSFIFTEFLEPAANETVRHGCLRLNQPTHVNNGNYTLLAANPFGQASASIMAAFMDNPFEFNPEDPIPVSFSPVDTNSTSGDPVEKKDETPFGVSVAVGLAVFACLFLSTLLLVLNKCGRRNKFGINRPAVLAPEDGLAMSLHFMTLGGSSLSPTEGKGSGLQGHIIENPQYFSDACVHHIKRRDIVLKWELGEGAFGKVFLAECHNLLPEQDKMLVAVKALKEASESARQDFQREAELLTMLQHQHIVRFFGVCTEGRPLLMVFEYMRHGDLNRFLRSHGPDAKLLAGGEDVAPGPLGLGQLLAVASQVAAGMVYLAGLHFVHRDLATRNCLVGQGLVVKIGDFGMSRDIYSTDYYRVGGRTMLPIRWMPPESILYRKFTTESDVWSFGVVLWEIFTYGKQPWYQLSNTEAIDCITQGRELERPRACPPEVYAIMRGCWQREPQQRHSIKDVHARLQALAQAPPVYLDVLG

CN(CCC(Oc1ccc(C(F)(F)F)cc1)c1ccccc1)C(=O)CCOCCOCCOCCOCCNC(=O)CCCC[C@@H]1SC[C@@H]2NC(=O)N[C@@H]21 (some centres unmarked) [biotinylated FLX]
Kd (TRKB [1]): 2420 nM | PLA signal between biotinylated FLX and TRKB (TRKB [2]): robust PLA signal | interaction of biotinylated fluoxetine with TRKA (TRKA): negligible

CC[C@H](C)C(=O)O[C@H]1C[C@H](O)C=C2C=C[C@H](C)[C@H](CC[C@@H](O)C[C@@H](O)CC(=O)O)[C@H]21 [pravastatin]
effect on BDNF-induced neurite branching (hippocampal cells): prevented | effect on BDNF-induced TRKB-PLC-γ1 interaction (TRKB:PLC-γ1 interaction): prevented | neuronal survival (E18 cortical cells): reduced neuronal survival | effect on BDNF-induced increase in synaptic strength (LTP) (Sprague-Dawley rats): partially prevented | effect on R,R-HNK-improved object location memory (mice): prevented
